Data published in patent US6919317B2, “Pharmaceutical composition comprising squalene epoxidase inhibitor and macrolide immunomodulator” (priority 2000, dated 2005).

Tests used:
Assay type in all cases: cell-based
[1] = system: Candida albicans; assay: NCCLS broth dilution combination study in yeast (modified M27-T), Candida albicans isolate; settings: for Antifungal activity of test compound alone: C. albicans isolate; for Interaction with fluconazole, C. albicans / Interaction with terbinafine, C. albicans: interpretation of FICI, MIC = 80% inhibition of growth, 48 hours; for Interaction with terbinafine, C. albicans: 37°, pH 7.0, isolate susceptible to both drugs
Protocol: (§1) Combination studies are performed with Candida species, using the NCCLS standard assay (National Committee for Clinical Laboratory Standards [1995], Reference method for broth dilution antifungal susceptibility testing of yeasts (Tentative Standard M27-T, NCCL, Villanova, Pa., U.S.A.), modified as follows: the assay is effected in RPMI 1640 medium without NaHCO3 but with L-glutamine buffered with MOPS at pH 7.0 at 37°. The inoculum is 2.5×10^3 cfu/ml. Incubation times are 48 hours. The MIC is defined as the lowest drug concentration causing 80% inhibition of fungal growth.
(§2) The reference test compound (either terbinafine or fluconazole) is tested in a full concentration range in the absence or presence of the other test drug at 1, 2, 4, and 8 μg/ml.
(§3) Interaction between the drugs is analysed by calculation of the Fractional Inhibitory Concentration Index (FICI), defined as: FICI=[(MIC A in combination)/MIC A]+[MIC B in combination]/MIC B]
(§4) Interpretation of FICI in terms of interaction between the two drugs is as follows: FICI=0.5: synergy; <0.5<FICI=1: additive; 1<FICI=2: indifferent; 2<FICI: antagonism (in practical terms, synergy by this definition means that the MICs of both drugs are reduced by at least 2 dilution steps when used in combination).
(§5) The ability of the four test compounds 33-epichloro,33-desoxyascomycin, 5,6-dehydroascomycin, ascomycin and tacrolimus to influence the antifungal activity of terbinafine and fluconazole was examined in a Candida albicans isolate susceptible to both drugs, and in one isolate of Candida krusei which is resistant to terbinafine and poorly responsive to fluconazole.

[2] = system: Candida krusei; assay: NCCLS broth dilution combination study in yeast (modified M27-T), Candida krusei isolate; settings: for Antifungal activity of test compound alone: C. krusei isolate; for Interaction with terbinafine as reference compound (in words): against Candida krusei; for Interaction with fluconazole, C. krusei / Interaction with terbinafine, C. krusei: interpretation of FICI, MIC = 80% inhibition of growth, 48 hours; for Interaction with fluconazole, C. krusei: isolate poorly responsive to fluconazole; for Interaction with terbinafine, C. krusei: isolate resistant to terbinafine
Protocol: as §1, §2, §3, §4, §5

[3] = system: Microsporum canis (strain NFI 5167); assay: Checkerboard combination study in dermatophyte, modified NCCLS microdilution M38-P; settings: for MIC single drug: MIC = lowest concentration causing 80% inhibition of fungal growth; for MIC single drug / MIC combination: unit assumed; for MIC combination: terbinafine hydrochloride combined with 33-epichloro,33-desoxyascomycin, MIC = 80% inhibition
Protocol: Minimum Inhibitory Concentrations (MIC) against dermatophytes are determined in 96-well assay trays by a modification of the NCCLS microdilution procedure M38-P (National Committee for Clinical Laboratory Standards, Reference method for broth antifungal susceptibility testing of conidium-forming filamentous fungi; NCCLS document M38-P; NCCLS, Wayne, Pa., USA [1998]), as detailed in H. A. Norris et al., J. Am. Acad. Dermatol. 40 [1999] S9-S13). The MIC is defined as the lowest drug concentration causing 80% inhibition of fungal growth.
Combination studies are performed in a checkerboard design using the above assay to provide a matrix of all possible dose combination of the two drugs within the required concentration range. The matrix structure is provided by the microtiter trays used for the assay. The terbinafine dilution series is arranged on the y-axis (in columns) and the partner drug on the x-axis (in rows). In each row, well no. 1 contains the sterility control, well no. 2 contains terbinafine hydrochloride alone, wells no. 3 to no. 11 contain the dilution series of the partner drug 33-epichloro,33-desoxyascomycin, and well no. 12 contains the growth control. In each column, well A contains the partner drug alone and wells B to H contain the dilution series of terbinafine hydrochloride.
The nature of the interaction between the two drugs is defined quantitatively by means of the Fractional Inhibitory Concentration Index (FICI), which is calculated by the following formula: FICI=[(MIC A in combination)/MIC A]+[(MIC B in combination)/MIC B].
Interpretation of the FICI is: • ≦0.5: synergy; • >0.5 but ≦1: additive; • >1 but ≦2: indifferent; • >2: antagonism.
In practice, synergy calculated in this way is equivalent to a reduction of at least 2 dilution steps in the MIC of each drug when they are combined.

Row | SMILES | Antifungal activity of test compound alone [1] | Interaction with fluconazole, C. albicans [1] | Interaction with terbinafine, C. albicans [1] | Antifungal activity of test compound alone [2] | Interaction with terbinafine as reference compound (in words) [2] | Interaction with fluconazole, C. krusei [2] | Interaction with terbinafine, C. krusei [2] | FICI ([3]; combination with terbinafine hydrochloride) | Interpretation (of FICI) ([3]; combination with terbinafine hydrochloride, ≦0.5: synergy) | MIC single drug [3] | MIC combination [3] | Interaction of fluconazole with the macrolide test compounds (in words) ([1]; Candida albicans, statement covers both Candida isolates) | Interaction of fluconazole with the macrolide test compounds (in words) ([2]; Candida krusei, statement covers both Candida isolates)
1 | CC[C@@H]1/C=C(\C)C[C@H](C)C[C@H](OC)[C@H]2O[C@@](O)(C(=O)C(=O)N3CCCC[C@H]3C(=O)O[C@H](/C(C)=C/[C@@H]3CC[C@H](Cl)[C@H](OC)C3)[C@H](C)[C@@H](O)CC1=O)[C@H](C)C[C@@H]2OC [33-Epichloro,33-desoxy-ascomycin, {[1E-(1R,3R,4S)]1R,9S,12S, 13R,14S,17R,18E, 21S,23S,24R,25S,27R}-12-[2-(4-chloro-3-methoxycyclohexyl)-1-methylvinyl]-17-ethyl-1,14-dihydroxy-23,25-dimethoxy-13,19,21,27-tetramethyl-11,28,dioxa-4-azatricyclo [22.3.1.0(4,9)]octacos-18-ene-2,3,10,16-tetraone] | completely inactive | − (−: indifferent/antagonistic) | + (+: additive) | completely inactive | strongly positive | − (−: indifferent/antagonistic) | − (−: indifferent/antagonistic) | 0.28 | synergy | 64 µg/mL | 16 µg/mL |  | 
2 | C=CC[C@@H]1/C=C(\C)C[C@H](C)C[C@H](OC)[C@H]2O[C@@](O)(C(=O)C(=O)N3CCCC[C@H]3C(=O)O[C@H](/C(C)=C/[C@@H]3CC[C@@H](O)[C@H](OC)C3)[C@H](C)[C@@H](O)CC1=O)[C@H](C)C[C@@H]2OC [Tacrolimus, tacrolimus] | completely inactive | − (−: indifferent/antagonistic) | + (+: additive) | completely inactive | powerfully synergistic | − (−: indifferent/antagonistic) | (* ((*: synergy) |  |  |  |  |  | 
3 | OC(Cn1cncn1)(Cn1cncn1)c1ccc(F)cc1F [fluconazole] |  |  |  |  |  |  |  |  |  |  |  | no potent synergy | no potent synergy
4 | CC[C@@H]1/C=C(\C)C[C@H](C)C[C@H](OC)[C@H]2O[C@@](O)(C(=O)C(=O)N3CCCC[C@H]3C(=O)O[C@H](/C(C)=C/[C@@H]3CC[C@@H](O)[C@H](OC)C3)[C@H](C)[C@@H](O)CC1=O)[C@H](C)C[C@@H]2OC [Ascomycin, ascomycin] | completely inactive | − (−: indifferent/antagonistic) | + (+: additive) | completely inactive | powerfully synergistic | − (−: indifferent/antagonistic) | (* ((*: synergy) |  |  |  |  |  | 
5 | CN(C/C=C/C#CC(C)(C)C)Cc1cccc2ccccc12 [terbinafine, (E)-N-methyl-N-(1-naphthylmethyl)-6,6-dimethylhept-2-en-4-amin] |  |  |  |  |  |  |  |  |  | 0.031 µg/mL | 0.001 µg/mL |  | 
6 | CC[C@@H]1/C=C(\C)C[C@H](C)C[C@H](OC)[C@H]2O[C@@](O)(C(=O)C(=O)N3C=CCC[C@H]3C(=O)O[C@H](/C(C)=C/[C@@H]3CC[C@@H](O)[C@H](OC)C3)[C@H](C)[C@@H](O)CC1=O)[C@H](C)C[C@@H]2OC [5,6-Dehydro-ascomycin, {1R,5Z,9S,12S-[1E-(1R,3R,4R)],13R,14S,17R,18E,21S,23S,24R,25S,27R}-17-ethyl-1,14-dihydroxy-12-[2-(4-hydroxy-3-methoxycyclohexyl)-1-methylvinyl]-23,25-dimethoxy-13,19,21,27-tetramethyl-11,28-dioxa-4-azatricyclo[22.3.1.0(4,9)]octacos-5,18-diene-2,3,10,16-tetraone] | completely inactive | − (−: indifferent/antagonistic) | + (+: additive) | completely inactive | strongly positive | − (−: indifferent/antagonistic) | − (−: indifferent/antagonistic) |  |  |  |  |  | 
